Results published in ChEMBL document CHEMBL3758102, “Serrulatane Diterpenoid from Eremophila neglecta Exhibits Bacterial Biofilm Dispersion and Inhibits Release of Pro-inflammatory Cytokines from Activated Macrophages” (J Nat Prod, 2015).
Active and inactive are the calls of the source. No cut-off for these calls is given here.

Columns and labels:
[1] = tested on: Staphylococcus epidermidis; experiment: Antibiofilm activity against Staphylococcus epidermidis ATCC 35984 assessed as inhibition of 3 to 6 hrs pre-established biofilm formation at 0.064 umol/well after 20 hrs by safranin staining-based method; assay type: functional, organism-based
[2] = tested on: Staphylococcus epidermidis; experiment: Antibiofilm activity against Staphylococcus epidermidis ATCC 35984 assessed as inhibition of 12 hrs pre-established biofilm formation at 0.064 umol/well after 20 hrs by safranin staining-based method; assay type: functional, organism-based
[3] = tested on: Staphylococcus epidermidis; experiment: Antibiofilm activity against Staphylococcus epidermidis ATCC 35984 assessed as inhibition of 24 hrs pre-established biofilm formation at 0.064 umol/well after 20 hrs by safranin staining-based method; assay type: functional, organism-based
[4] = tested on: Staphylococcus epidermidis; experiment: Antibiofilm activity against Staphylococcus epidermidis ATCC 35984 assessed as 3 hrs pre-established biofilm viable cell count after 20 hrs (reference value: 1 x 10^10 CFU/ml); assay type: functional
[5] = tested on: Staphylococcus epidermidis; experiment: Antibiofilm activity against Staphylococcus epidermidis ATCC 35984 assessed as 6 hrs pre-established biofilm viable cell count after 20 hrs (reference value: 8.3 x 10^9 CFU/ml); assay type: functional
[6] = tested on: Staphylococcus epidermidis; experiment: Antibiofilm activity against Staphylococcus epidermidis ATCC 35984 assessed as 12 hrs pre-established biofilm viable cell count after 20 hrs (reference value: 1.2 x 10^10 CFU/ml); assay type: functional
[7] = tested on: Staphylococcus epidermidis; experiment: Antibiofilm activity against Staphylococcus epidermidis ATCC 35984 assessed as 24 hrs pre-established biofilm viable cell count after 20 hrs (reference value: 1.4 x 10^10 +/- 2.6 x 10^9 CFU/ml); assay type: functional
[8] = tested on: Staphylococcus epidermidis; experiment: Antibiofilm activity against Staphylococcus epidermidis ATCC 35984 assessed as reduction in 12 hrs pre-established biofilm viable cell count after 20 hrs (reference value: 1.2 x 10^10 CFU/ml); assay type: functional
[9] = tested on: Staphylococcus epidermidis; experiment: Antibiofilm activity against Staphylococcus epidermidis ATCC 35984 assessed as inhibition of 12 hrs pre-established biofilm formation at 0.064 umol/well after 20 hrs by visible spectrometric analysis; assay type: functional, organism-based
[10] = tested on: Staphylococcus epidermidis; experiment: Antibiofilm activity against Staphylococcus epidermidis ATCC 35984 assessed as inhibition of 24 hrs pre-established biofilm formation at 0.064 umol/well after 20 hrs by visible spectrometric analysis; assay type: functional, organism-based
[11] = tested on: Staphylococcus epidermidis; experiment: Antibiofilm activity against Staphylococcus epidermidis ATCC 35984 assessed as killing of biofilm in 12 hrs pre-established biofilm at 0.064 umol/well after 20 hrs by fluorescence staining-based confocal microscopic analysis; assay type: functional, organism-based
BMDM [12] = experiment: Inhibition of TNFalpha production in C57Bl/6 mouse BMDM cells at 1.6 to 6.4 uM pretreated prior to LPS-stimulation measured on day 7 by ELISA; assay type: functional, cell-based; settings: C57BI/6
BMDM [13] = experiment: Inhibition of IL-6 production in C57Bl/6 mouse BMDM cells at 1.6 to 6.4 uM pretreated prior to LPS-stimulation measured on day 7 by ELISA; assay type: functional, cell-based; settings: C57BI/6
BMDM [14] = experiment: Inhibition of IL-1beta production in C57Bl/6 mouse BMDM cells at 1.6 to 6.4 uM pretreated for 1 hr prior to ATP-stimulation by ELISA; assay type: functional, cell-based; settings: C57BI/6
[15] = tested on: Staphylococcus epidermidis; experiment: Antibacterial activity against Staphylococcus epidermidis ATCC 35984 incubated overnight by broth microdilution method; assay type: functional

Compound | Activity [1] | Activity [2] | Activity [3] | Activity [4] | Activity [5] | Activity [6] | Activity [7] | Activity [8] | inhibition [9] | inhibition [10] | Activity [11] | inhibition (BMDM [12]) | inhibition (BMDM [13]) | inhibition (BMDM [14]) | MIC [15]
N=C(NCCCCCCNC(=N)NC(=N)Nc1ccc(Cl)cc1)NC(=N)Nc1ccc(Cl)cc1 [CHLORHEXIDINE] | inactive | Active | Active | 0 CFU/ml | 0 CFU/ml | 4 ×10³ CFU/ml | 1.3 ×10⁶ CFU/ml | 7 log10CFU/ml | Active | Active | Active | – | – | – | –
C[C@]12CCC(=O)C=C1CC[C@@H]1[C@@H]2[C@@H](O)C[C@@]2(C)[C@H]1CC[C@]2(O)C(=O)COC(=O)CCC(=O)O | – | – | – | – | – | – | – | – | – | – | – | Active | Active | inactive | –
C[C@H]1COc2c(N3CCN(C)CC3)c(F)cc3c(=O)c(C(=O)O)cn1c23.C[C@H]1COc2c(N3CCN(C)CC3)c(F)cc3c(=O)c(C(=O)O)cn1c23.O [LEVOFLOXACIN] | Active | inactive | inactive | 0 CFU/ml | 0 CFU/ml | 8 ×10³ CFU/ml | 2.2 ×10⁶ CFU/ml | 7 log10CFU/ml | Active | Active | Active | – | – | – | 0.66 µM
